Reference: US6787569B1, “Therapeutic guanidines” (Cambridge NeuroScience, Inc., priority 1994, dated 2004)
Structures can show the parent of a compound that is named as a salt.

What was measured:
[1] = system: depolarization-induced 3H-glutamate release from brain nerve terminals; assay: Inhibition of 3H-glutamate release, high [K+] depolarization, rapid superfusion of synaptosomes; type: biochemical; details: rat brain synaptosomes; for % Inhibition of ^3H-Glu Rel @ 0.3 μM: 0.3 μM compound; for % Inhibition of ^3H-Glu Rel @ 1 μM: 1 μM compound
[2] = system: audiogenic seizures in DBA/2 mice; assay: In vivo anticonvulsant activity in the DBA/2 mouse model (audiogenic seizures); details: 30 minutes prior to auditory stimulus
Description: Compounds were tested for their effectiveness in preventing seizures in DBA/2 mice which have a unique sensitivity to auditory stimulation. Exposure to loud high-frequency sounds can trigger seizure activity in these animals. This sensitivity develops from postnatal day 12 and peaks around day 21 and slowly diminishes as the animals mature. The unusual response to auditory stimulation in this strain of mouse is believed to be due to a combination of early myelination (causing an unusually low excitatory threshold) and delayed development of inhibitory mechanisms. Glutamate, the predominant excitatory neurotransmitter, has been implicated in this response. Blockade of glutamate receptors of the NMDA and AMPA subtypes, prevents audiogenic seizures in these mice. Compounds that block the release of glutamate should similarly act to prevent seizure activity, and may be therapeutic in other neurologic disorders such as stroke, which also involves glutamate-mediated damage.
Mice were injected intraperitoneally with the compound specified in Table V below or with vehicle control, 30 minutes prior to being placed in a bell jar and turning on the auditory stimulus (12 KHz sine wave at 110-120 db). Administered doses are specified in Table V as milligram of compound per kilogram bodyweight of mouse. The auditory stimulus was left on for 60 seconds and mice reactions were timed and recorded.
Percentage inhibition was determined with reference to vehicle controls.

[3] = target: Type II neuronal voltage-activated sodium channels (Rattus norvegicus, UniProt P04775); assay: cell-based; details: veratridine (100 μM)-induced, tetrodotoxin-sensitive uptake; CHO cells expressing rat brain Type II Na channels; read-out: IC50, block of ^14C guanidinium uptake
Type II neuronal voltage-activated sodium channels, sequence (P04775 whole entry): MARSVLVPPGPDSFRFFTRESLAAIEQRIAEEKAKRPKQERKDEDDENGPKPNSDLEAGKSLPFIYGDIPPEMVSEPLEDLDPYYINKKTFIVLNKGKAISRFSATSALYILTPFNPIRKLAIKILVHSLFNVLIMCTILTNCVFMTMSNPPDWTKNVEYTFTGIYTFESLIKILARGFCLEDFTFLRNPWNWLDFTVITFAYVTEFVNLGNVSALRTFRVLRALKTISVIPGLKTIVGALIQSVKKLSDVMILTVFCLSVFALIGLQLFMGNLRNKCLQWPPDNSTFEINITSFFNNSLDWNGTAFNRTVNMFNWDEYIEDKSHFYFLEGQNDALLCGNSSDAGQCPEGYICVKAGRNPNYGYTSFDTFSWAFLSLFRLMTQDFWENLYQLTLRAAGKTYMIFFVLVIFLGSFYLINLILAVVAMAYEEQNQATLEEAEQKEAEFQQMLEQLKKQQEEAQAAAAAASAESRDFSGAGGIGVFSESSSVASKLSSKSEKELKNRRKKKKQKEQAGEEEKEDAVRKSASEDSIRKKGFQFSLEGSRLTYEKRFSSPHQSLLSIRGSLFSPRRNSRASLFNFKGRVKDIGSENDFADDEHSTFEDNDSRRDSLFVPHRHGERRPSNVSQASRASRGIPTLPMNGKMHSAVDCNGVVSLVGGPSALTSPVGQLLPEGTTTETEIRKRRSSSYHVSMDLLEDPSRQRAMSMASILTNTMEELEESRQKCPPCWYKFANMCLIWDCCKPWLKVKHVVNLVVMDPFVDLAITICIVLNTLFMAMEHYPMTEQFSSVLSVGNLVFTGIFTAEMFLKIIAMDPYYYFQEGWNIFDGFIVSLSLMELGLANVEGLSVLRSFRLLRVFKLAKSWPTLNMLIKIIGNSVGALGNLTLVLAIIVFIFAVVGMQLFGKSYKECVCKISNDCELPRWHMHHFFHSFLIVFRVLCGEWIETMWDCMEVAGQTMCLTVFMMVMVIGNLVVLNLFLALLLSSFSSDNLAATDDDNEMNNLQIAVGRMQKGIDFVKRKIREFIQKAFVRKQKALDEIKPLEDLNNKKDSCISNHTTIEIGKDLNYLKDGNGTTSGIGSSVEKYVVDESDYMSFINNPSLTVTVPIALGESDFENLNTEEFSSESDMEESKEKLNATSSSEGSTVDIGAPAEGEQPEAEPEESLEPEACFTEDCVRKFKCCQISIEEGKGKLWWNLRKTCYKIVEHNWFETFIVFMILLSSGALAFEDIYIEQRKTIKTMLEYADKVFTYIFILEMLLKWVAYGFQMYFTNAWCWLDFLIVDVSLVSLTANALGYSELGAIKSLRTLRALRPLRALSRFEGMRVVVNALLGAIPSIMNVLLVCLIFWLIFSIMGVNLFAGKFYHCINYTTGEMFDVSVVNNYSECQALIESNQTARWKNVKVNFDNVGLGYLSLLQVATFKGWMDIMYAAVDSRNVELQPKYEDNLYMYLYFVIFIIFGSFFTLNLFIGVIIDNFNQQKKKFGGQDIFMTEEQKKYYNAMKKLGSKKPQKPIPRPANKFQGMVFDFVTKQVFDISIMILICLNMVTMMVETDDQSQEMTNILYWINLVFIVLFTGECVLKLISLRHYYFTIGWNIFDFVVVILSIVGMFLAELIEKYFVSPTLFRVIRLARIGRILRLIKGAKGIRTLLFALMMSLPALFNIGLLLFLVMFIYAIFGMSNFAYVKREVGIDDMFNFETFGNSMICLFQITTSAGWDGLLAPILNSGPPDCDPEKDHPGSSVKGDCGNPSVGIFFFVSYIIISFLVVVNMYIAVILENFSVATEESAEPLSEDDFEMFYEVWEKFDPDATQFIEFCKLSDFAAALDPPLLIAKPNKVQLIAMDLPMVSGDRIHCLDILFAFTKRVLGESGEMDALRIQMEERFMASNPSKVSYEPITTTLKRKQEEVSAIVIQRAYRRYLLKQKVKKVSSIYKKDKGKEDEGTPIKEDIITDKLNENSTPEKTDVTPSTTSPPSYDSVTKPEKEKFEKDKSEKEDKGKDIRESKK

Compound	% Inhibition of ^3H-Glu Rel @ 0.3 μM [1]	Audiogenic Response % Inhib. ([2]; 40 mg/kg intraperitoneally)	also measured
CC(C)(C)c1ccc(NC(=N)Nc2cccc(COCc3ccccc3)c2)cc1.CS(=O)(=O)O [Example 106, N-3-(Benzyloxymethyl)phenyl-N′-(4-tert-butylphenyl)guanidine.mesylate]	48%	93%	
CC(C)(C)c1ccc(CN(C(=N)N)c2ccc(C3CCCCC3)cc2)cc1 [Example 21, N-(4-Cyclohexylphenyl)-N-(4-tert-butylbenzyl)guanidine.HCl]			IC50 [3]: 1900 nM
N-(4-sec-Butylphenyl)-N-(4-t-butylbenzyl)-N′-pyrrolidinylguanidine.HCl [Example 72]	48%	81%	Audiogenic Response % Inhib. ([2]; 20 mg/kg intraperitoneally): 52%
CCCCc1ccc(NC(=N)Nc2ccc(CCCC)cc2)cc1.CS(=O)(=O)O [Example 37, N,N′-Bis(4-n-butylphenyl)guanidine.mesylate]	57%	92%	% Inhibition of ^3H-Glu Rel @ 1 μM [1]: 100%; Audiogenic Response % Inhib. ([2]; 25 mg/kg intraperitoneally): 82%
CC(C)c1ccc(NC(=N)Nc2ccc3ccccc3c2)cc1 [Example 11, N-(2-Naphthyl)-N′-(4-isopropylphenyl)guanidine.HCl]			IC50 [3]: 900 nM
CC(C)c1ccc(CN(C(=N)N)c2ccc(C3CCCCC3)cc2)cc1 [Example 20, N-(4-Cyclohexylphenyl)-N-(4-isopropylbenzyl)guanidine.HCl]			IC50 [3]: 900 nM
CCCCc1ccc(NC(=N)Nc2ccc(OCc3ccccc3)cc2)cc1.Cl [Example 104, N-(4-Benzyloxyphenyl)-N′-(4-butylphenyl)guanidine.HCl]	76%	90%	Audiogenic Response % Inhib. ([2]; 20 mg/kg intraperitoneally): 40%
CCC(C)c1ccc(N(Cc2ccc(C(C)(C)C)cc2)C(=N)NN2CCSCC2)cc1.Cl (centres unmarked) [Example 73, N-(4-sec-Butylphenyl)-N-(4-t-butylbenzyl)-N′-(4-thiomorpholinyl)guanidine.HCl]		89%	% Inhibition of ^3H-Glu Rel @ 1 μM [1]: 59%; Audiogenic Response % Inhib. ([2]; 20 mg/kg intraperitoneally): 23%
CC(C)(C)c1ccc(CN(C(=N)N)c2ccc3c(c2)Cc2ccccc2-3)cc1 [Example 22, N-(2-Fluorenyl)-N-(4-tert-butylbenzyl)guanidine.HCl]			IC50 [3]: 500 nM
N=C(Nc1ccc(OCc2ccccc2)cc1)Nc1ccc(Oc2ccccc2)cc1 [N-(4-benzyloxyphenyl)-N′-(4-phenoxyphenyl)guanidine]		93%	Audiogenic Response % Inhib. ([2]; 20 mg/kg intraperitoneally): 16%
Br.CCCCOc1ccc(NC(=N)Nc2ccc(OCCCC)cc2)cc1 [Example 137, N,N′-Bis(4-butoxyphenyl)guanidine.HBr]		82%	Audiogenic Response % Inhib. ([2]; 20 mg/kg intraperitoneally): 60%
CC(C)(C)c1ccc(CN(C(=N)N)c2ccc3c(c2)CCC3)cc1 [Example 26, N-(5-Indanyl)-N-(4-tert-butylbenzyl)guanidine.HCl]			IC50 [3]: 700 nM
CC(C)(C)c1ccc(NC(=N)Nc2cccc(OCc3ccccc3)c2)cc1.CS(=O)(=O)O [Example 108, N-(3-Benzyloxy)phenyl-N′-(4-tert-butylphenyl)guanidine.mesylate]	49%	80%	
CC(C)(C)c1ccc(CN(C(=N)NN2CCOCC2)c2ccc(OCc3ccccc3)cc2)cc1.Cl [Example 79, N-(4-Benzyloxyphenyl)-N-(4-tert-butylbenzyl)-N′-(4-morpholinyl)guanidine.HCl]	77%	68%	Audiogenic Response % Inhib. ([2]; 20 mg/kg intraperitoneally): 41%
N=C(Nc1ccc2ccccc2c1)NC1C2CC3CC(C2)CC1C3 (centres unmarked) [Example 16, N-(2-Naphthyl)-N′-(2-adamantyl)guanidine.HCl]			IC50 [3]: 500 nM
CCC(C)c1ccc(N(Cc2ccc(C(C)(C)C)cc2)C(=N)Nc2ccc(OCc3ccccc3)cc2)cc1.CS(=O)(=O)O (centres unmarked) [Example 91, N-(4-sec-Butylphenyl)-N-(4-tert-butylbenzyl)-N′-(4-benzyloxyphenyl)guanidine.mesylate]	49%		

Compound	% Inhibition of ^3H-Glu Rel @ 0.3 μM [1]	Audiogenic Response % Inhib. ([2]; 40 mg/kg intraperitoneally)	also measured
Cl.N=C(Nc1ccc2c3c(cccc13)CC2)NC(Cc1ccccc1)c1ccccc1 (centres unmarked) [Example 41, N-(5-Acenaphthyl)-N′-(1,2-diphenylethyl)guanidine.HCl]			% Inhibition of ^3H-Glu Rel @ 1 μM [1]: 52%
N=C(Nc1ccc2c(c1)Cc1ccccc1-2)Nc1ccc2c(c1)Cc1ccccc1-2 [Example 12, N,N′-Bis(2-fluorenyl)guanidine.HBr]			IC50 [3]: 1500 nM
CN(C(=N)Nc1cccc(OCc2ccccc2)c1)c1cccc(OCc2ccccc2)c1.Cl [Example 141, N,N′-Bis(3-benzyloxyphenyl)-N′-methylguanidine.HCl]	67%		
N-(5-Acenaphthyl)-N′-(indolinyl)guanidine.mesylate [Example 29]		81%	Audiogenic Response % Inhib. ([2]; 20 mg/kg intraperitoneally): 42%
CCCCOc1ccc(NC(=N)Nc2ccc(C(C)(C)C)cc2)cc1OCCCC.O=C(O)C(=O)O [Example 107, N-(3,4-Bis-butyloxyphenyl)-N′-(4-tert-butylphenyl)guanidine.oxalate]	34%		
CCC(C)c1ccc(N(Cc2ccc(C(C)(C)C)cc2)C(=N)N2CCc3ccccc3C2)cc1.Cl (centres unmarked) [Example 80]	68%		
Br.N=C(Nc1ccc2c(c1)CCCC2)Nc1ccc2c(c1)CCCC2 [Example 111, N,N′-Bis-(6-tetralinyl)guanidine.HBr]	61%		
CCC(C)c1ccc(N(Cc2ccc(OCc3ccccc3)cc2)C(=N)N)cc1.Cl (centres unmarked) [Example 66, N-(4-sec-Butylphenyl)-N-(4-benzyloxybenzyl)guanidine.HCl]			% Inhibition of ^3H-Glu Rel @ 1 μM [1]: 54%
CCC(C)c1ccc(N(Cc2ccc(C(C)(C)C)cc2)C(=N)Nc2ccc(Cl)c(Cl)c2)cc1.Cl (centres unmarked) [Example 89, N-(4-sec-Butylphenyl)-N-(4-tert-butylbenzyl)-N′-(3,4-dichlorophenyl)guanidine.HCl]	21%		
CCC(C)c1ccc(N(Cc2ccc(C(C)(C)C)cc2)C(=N)NN2CCOCC2)cc1.Cl (centres unmarked) [Example 75, N-(4-sec-Butylphenyl)-N-(4-tert-butylbenzyl)-N′-(4-morpholinyl)guanidine.HCl]	42%		
CCC(C)c1ccc(N(Cc2ccc(C(C)(C)C)cc2)C(=N)NN2C(C)COCC2C)cc1.Cl (centres unmarked) [Example 82, N-(4-sec-Butylphenyl)-N-(4-tert-butylbenzyl)-N′-(3,5-dimethyl-4-morpholinyl)guanidine.HCl]	60%		
CCCCc1ccc(NC(=N)N(C)c2ccc(OCc3ccccc3)cc2)cc1.CS(=O)(=O)O [Example 110, N-(4-Benzyloxyphenyl)-N-methyl-N′-(4-butylphenyl)guanidine.mesylate]	77%	92.5%	Audiogenic Response % Inhib. ([2]; 20 mg/kg intraperitoneally): 42.3%
CC(C)(C)c1ccc(NC(=N)Nc2ccc(OCc3ccccc3)cc2)cc1.Cl [Example 93, N-(4-Benzyloxyphenyl)-N′-(4-tert-butylphenyl)guanidine.HCl]	48%		% Inhibition of ^3H-Glu Rel @ 1 μM [1]: 91%
Br.CN(C(=N)Nc1ccc(C(C)(C)C)cc1)c1ccc(C(C)(C)C)cc1 [Example 35, N,N′-Bis(4-tert-butylphenyl)-N-methylguanidine.HBr]			% Inhibition of ^3H-Glu Rel @ 1 μM [1]: 61%
Cl.N=C(N)N(Cc1cccc(OCc2ccccc2)c1)c1ccc2c3c(cccc13)CC2 [Example 68, N-(5-Acenaphthyl)-N-(3-benzyloxybenzyl)guanidine.HCl]			% Inhibition of ^3H-Glu Rel @ 1 μM [1]: 76%
